Assay results: patent US20240287065A1, “COMPOUND AS CDK KINASE INHIBITOR AND USE THEREOF” (TYK MEDICINES (ZHENGZHOU) , INC., priority 2021, published 2024)

What was measured:
HCC1806 cells = assay: Cell proliferation inhibition assay (MTT, 7 days); format: cell-based; settings: Homo sapiens, HCC1806, 168 h, HCC1086 [sic], 7 days incubation
Description: (§1) MCF7, T47D, OVCAR3 and HCC1806 cells were inoculated in 96-well plates at 3000, 3000, 2500, and 2000 cells/well, respectively, and cultured overnight at 37° C., 5% C02 incubator.
(§2) 1. […] Then 2.5 μl of the stock solution was dissolved in 497.5 μl of DMSO-free medium, and then a 3-fold serial gradient dilution was performed with 0.1% DMSO medium for a total of 9 concentrations, and the concentrations of the compounds after dilution were as follows: • 10000 nM, 3333.33 nM, 1111.11 nM, 370.34 nM, 123.45 nM, 41.15 nM, 13.72 nM, 4.57 nM, and 1.52 nM. • b) After fully mixing, 20 μL of compound solutions were added into cell culture plates containing 80 μL of cells respectively, with 4 replicate wells for each concentration. • c) The cells were transferred to an incubator and incubated for 7 days, and exchanged with fresh culture medium containing the same concentration of compounds when incubated to day 4. 2. MTT assay • a) The cell culture plate was taken out and 10 μL of 5 mg/ml MTT was added to the hood. • b) The cell culture plate was put back into the incubator and continued to incubate for 3 hours. • c) The cell culture plate was taken out to remove the culture medium, and 100 μL of isopropanol (0.4 mMHCl, 0.4% NP40) was added to the plate, and the plate was shaken on a shaker at room temperature for 30 minutes and read at 570 nm. 3. Data analysis
(§3) The survival rate (% Cell Survival) was calculated using the following equation:
(§4) % Cell Survival=100%×(OD_Sample−OD_LCave)/(OD_HC−OD_LCave) • OD_HC: 0.1‰ cell readings of DMSO control • OD_Sample: cell readings of compound addition • OD_LC: readings of blank medium • Analyed by Prizm: Dose-response-Inhibition Log(inhibitor) vs response (three parameters for the best fit)
(§5) IC50 (nM) values were calculated by concentration-response curve fitting.

MCF7 cells = assay: Cell proliferation inhibition assay (MTT, 7 days); format: cell-based; settings: Homo sapiens, 168 h, 7 days incubation
Description: as §1, §2, §3, §4, §5

OVCAR3 cells = assay: Cell proliferation inhibition assay (MTT, 7 days); format: cell-based; settings: Homo sapiens, OVCAR-3, 168 h, 7 days incubation
Description: as §1, §2, §3, §4, §5

T47D cells = assay: Cell proliferation inhibition assay (MTT, 7 days); format: cell-based; settings: Homo sapiens, 168 h, 7 days incubation
Description: as §1, §2, §3, §4, §5

CDK2/CycE1 = CDK2/CycE1 (Homo sapiens, UniProt P24941); assay: Enzyme activity test; format: biochemical;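 note: values come from the source column headed CDK2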
Description: (§6) • 1. The test compounds and pabocinib were configured into a […] solution of DMSO; • 2. 20 nL of stock solution was transferred to a 384-well plate using Echo550. DMSO was used as a blank control.
(§7) • 1. according to the following table to prepare 1.3X enzyme solution containing enzyme, substrate and cofactor; • 2. 15 μL of 1.3X enzyme solution was added to each well and the mixture was incubated for 30 min at room temperature; • 3. 5 μL of ATP solution was added to initiate the reaction. The final volume of each well was 20 μL; • 4. After incubation for 150 min at room temperature, 75 μL of termination buffer solution was added to terminate the experiment; • 5. The samples were analyzed using EZ reader.
(§8) The % inhibition was calculated using the following equation
(§9) The one treated with DMSO is the positive control (PC)
(§10) The one without enzyme is the negative control (NC)
(§11) % Inhibition=100-100*((CRPC−CRsample)/(CRPC−CRNC))

CDK4/CycD3 = CDK4/CycD3 (Homo sapiens, UniProt P11802); assay: Enzyme activity test; format: biochemical;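 note: values come from the source column headed CDK4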
Chain of CDK4/CycD3 (P11802 whole entry, species assumed): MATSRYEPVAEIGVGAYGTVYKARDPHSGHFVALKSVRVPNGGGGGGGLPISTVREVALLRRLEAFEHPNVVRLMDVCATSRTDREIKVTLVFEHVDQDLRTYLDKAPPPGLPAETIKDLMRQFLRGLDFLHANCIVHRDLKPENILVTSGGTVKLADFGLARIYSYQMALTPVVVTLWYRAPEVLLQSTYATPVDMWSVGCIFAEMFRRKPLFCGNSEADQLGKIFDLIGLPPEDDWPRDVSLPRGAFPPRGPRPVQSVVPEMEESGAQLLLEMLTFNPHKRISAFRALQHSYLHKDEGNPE
Chain of CDK4/CycD3 (P30281 whole entry partner, species assumed): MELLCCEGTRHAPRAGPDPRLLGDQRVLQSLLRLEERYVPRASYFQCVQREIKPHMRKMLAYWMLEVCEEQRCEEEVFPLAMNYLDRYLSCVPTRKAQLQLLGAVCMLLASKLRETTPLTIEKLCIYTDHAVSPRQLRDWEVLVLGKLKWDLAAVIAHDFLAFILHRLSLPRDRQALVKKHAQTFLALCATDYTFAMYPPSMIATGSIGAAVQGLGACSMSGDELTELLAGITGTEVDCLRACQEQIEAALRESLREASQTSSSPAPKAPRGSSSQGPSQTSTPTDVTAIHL
Description: as §6, §7, §8, §9, §10, §11

CDK6/CycD1 = CDK6/CycD1 (Homo sapiens, UniProt Q00534); assay: Enzyme activity test; format: biochemical;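 note: values come from the source column headed CDK6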
Chain of CDK6/CycD1 (Q00534 whole entry, species assumed): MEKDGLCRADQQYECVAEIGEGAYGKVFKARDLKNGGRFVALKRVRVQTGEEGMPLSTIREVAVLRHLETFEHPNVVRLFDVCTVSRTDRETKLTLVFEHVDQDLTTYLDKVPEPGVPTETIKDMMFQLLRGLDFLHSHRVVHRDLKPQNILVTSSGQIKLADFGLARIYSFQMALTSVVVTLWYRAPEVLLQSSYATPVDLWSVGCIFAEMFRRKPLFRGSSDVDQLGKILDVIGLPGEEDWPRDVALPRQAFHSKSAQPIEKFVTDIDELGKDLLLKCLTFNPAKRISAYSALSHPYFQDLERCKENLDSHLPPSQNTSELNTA
Chain of CDK6/CycD1 (P24385 whole entry partner, species assumed): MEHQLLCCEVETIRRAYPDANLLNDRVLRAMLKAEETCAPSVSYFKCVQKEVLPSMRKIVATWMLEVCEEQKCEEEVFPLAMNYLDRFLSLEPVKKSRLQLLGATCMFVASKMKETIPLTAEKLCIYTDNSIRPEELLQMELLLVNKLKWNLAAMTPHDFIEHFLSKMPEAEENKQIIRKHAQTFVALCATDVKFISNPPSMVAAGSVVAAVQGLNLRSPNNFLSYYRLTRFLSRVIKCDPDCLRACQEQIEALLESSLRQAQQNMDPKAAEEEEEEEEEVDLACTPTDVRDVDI
Description: as §6, §7, §8, §9, §10, §11

Row | SMILES | IC50 (HCC1806 cells) [nM] | IC50 (MCF7 cells) [nM] | IC50 (OVCAR3 cells) [nM] | IC50 (T47D cells) [nM] | IC50 (CDK2/CycE1) [nM] | IC50 (CDK4/CycD3) [nM] | IC50 (CDK6/CycD1) [nM]
1 | C[C@@]1(O)CCC[C@H]1n1c(=O)c(OC(F)F)cc2cnc(Nc3ccc4c(c3)CN(S(C)(=O)=O)C4)nc21 [Example 64] | 50 to 5200 | 50 to 5200 | ≤ 50 | ≤ 50 | < 10 | 10 to 100 | < 10
2 | C[C@@]1(O)CCC[C@H]1n1c(=O)c(OC(F)F)cc2cnc(NC3CCN(S(=O)(=O)c4cc(F)cc(F)c4)CC3)nc21 [Example 15] | 50 to 5200 | 50 to 5200 | 50 to 5200 | 50 to 5200 | < 10 | < 10 | < 10
3 | CCCc1ccc(S(=O)(=O)N2CCC(Nc3ncc4cc(OC(F)F)c(=O)n([C@@H]5CCC[C@@]5(C)O)c4n3)CC2)cc1 [Example 28] | 200 to 51000 | 50 to 5200 | 50 to 5200 | 50 to 5200 | < 10 | 10 to 100 | < 10
4 | C[C@@]1(O)CCC[C@H]1n1c(=O)c(OC(F)F)cc2cnc(NC3CCN(S(=O)(=O)c4cccnc4)CC3)nc21 [Example 51] | 50 to 5200 | ≤ 50 | ≤ 50 | ≤ 50 | < 10 | < 10 | < 10
5 | CC(C)(O)Cn1cc(S(=O)(=O)N2CCC(Nc3ncc4cc(OC(F)F)c(=O)n([C@@H]5CCC[C@@]5(C)O)c4n3)CC2)cn1 [Example 75] | 50 to 5200 | ≤ 50 | ≤ 50 | ≤ 50 | < 10 | 10 to 100 | < 10
6 | C[C@@]1(O)CCC[C@H]1n1c(=O)c(OC(F)F)cc2cnc(NC3CCN(S(=O)(=O)c4ccc(S(C)(=O)=O)cc4)CC3)nc21 [Example 11] | ≤ 50 | ≤ 50 | ≤ 50 | ≤ 50 | < 10 | < 10 | < 10
7 | COc1cccc(S(=O)(=O)N2CCC(Nc3ncc4cc(OC(F)F)c(=O)n([C@@H]5CCC[C@@]5(C)O)c4n3)CC2)c1 [Example 10] | 50 to 5200 | 50 to 5200 | ≤ 50 | ≤ 50 | < 10 | < 10 | < 10
8 | CN(C)c1ccc(S(=O)(=O)N2CCC(Nc3ncc4cc(OC(F)F)c(=O)n([C@@H]5CCC[C@@]5(C)O)c4n3)CC2)cc1 [Example 22] | 50 to 5200 | 50 to 5200 | ≤ 50 | ≤ 50 | < 10 | 10 to 100 | < 10
9 | COc1ccc(S(=O)(=O)N2CCC(Nc3ncc4cc(OC(F)F)c(=O)n([C@@H]5CCC[C@@]5(C)O)c4n3)CC2)cc1 [Example 24] | ≤ 50 | ≤ 50 | ≤ 50 | ≤ 50 | < 10 | < 10 | < 10
10 | C[C@@]1(O)CCC[C@H]1n1c(=O)c(OC(F)F)cc2cnc(NC3CCN(S(=O)(=O)c4ccc(F)c(F)c4)CC3)nc21 [Example 18] | ≤ 50 | 50 to 5200 | ≤ 50 | ≤ 50 | < 10 | < 10 | < 10
11 | C[C@@]1(O)CCC[C@H]1n1c(=O)c(OC(F)F)cc2cnc(NC3CCN(S(=O)(=O)c4ccc(C(F)(F)F)cc4)CC3)nc21 [Example 5] | 50 to 5200 | 50 to 5200 | 50 to 5200 | ≤ 50 | < 10 | 10 to 100 | < 10

Next, values leading:

Row | IC50 (HCC1806 cells) [nM] | IC50 (MCF7 cells) [nM] | IC50 (OVCAR3 cells) [nM] | IC50 (T47D cells) [nM] | IC50 (CDK2/CycE1) [nM] | IC50 (CDK4/CycD3) [nM] | IC50 (CDK6/CycD1) [nM] | SMILES
12 | 50 to 5200 | 50 to 5200 | ≤ 50 | ≤ 50 | < 10 | 10 to 100 | < 10 | Cc1ccc(S(=O)(=O)N2CCC(Nc3ncc4cc(OC(F)F)c(=O)n([C@@H]5CCC[C@@]5(C)O)c4n3)CC2)cc1 [Example 8]
13 | 50 to 5200 | 50 to 5200 | 50 to 5200 | ≤ 50 | < 10 | < 10 | < 10 | C[C@@]1(O)CCC[C@H]1n1c(=O)c(OC(F)F)cc2cnc(NC3CCN(S(=O)(=O)c4ccc(F)cc4F)CC3)nc21 [Example 7]
14 | 50 to 5200 | 50 to 5200 | ≤ 50 | 50 to 5200 | < 10 | < 10 | < 10 | C[C@@]1(O)CCC[C@H]1n1c(=O)c(OC(F)F)cc2cnc(NC3CCN(S(=O)(=O)c4ccccc4C#N)CC3)nc21 [Example 9]
15 | ≤ 50 | ≤ 50 | ≤ 50 | ≤ 50 | < 10 | < 10 | < 10 | C[C@@]1(O)CCC[C@H]1n1c(=O)c(OC(F)F)cc2cnc(NC3CCN(S(=O)(=O)c4ccccc4)CC3)nc21 [Example 16]
16 | 50 to 5200 | 50 to 5200 | 50 to 5200 | ≤ 50 | < 10 | 10 to 100 | < 10 | COc1ccccc1S(=O)(=O)N1CCC(Nc2ncc3cc(OC(F)F)c(=O)n([C@@H]4CCC[C@@]4(C)O)c3n2)CC1 [Example 14]
17 | 50 to 5200 | 50 to 5200 | 50 to 5200 | ≤ 50 | < 10 | 10 to 100 | < 10 | C[C@@]1(O)CCC[C@H]1n1c(=O)c(OC(F)F)cc2cnc(NC3CCN(S(=O)(=O)c4cc(F)ccc4F)CC3)nc21 [Example 26]
18 | ≤ 50 | ≤ 50 | ≤ 50 | ≤ 50 | < 10 | < 10 | < 10 | C[C@@]1(O)CCC[C@H]1n1c(=O)c(OC(F)F)cc2cnc(NC3CCN(S(=O)(=O)c4ccc(C#N)cc4)CC3)nc21 [Example 6]
19 | ≤ 50 | ≤ 50 | ≤ 50 | ≤ 50 | < 10 | < 10 | < 10 | C[C@@]1(O)CCC[C@H]1n1c(=O)c(OC(F)F)cc2cnc(NC3CCN(S(=O)(=O)c4cccc(F)c4)CC3)nc21 [Example 17]
20 | 50 to 5200 | 50 to 5200 | ≤ 50 | ≤ 50 | < 10 | 10 to 100 | < 10 | C[C@@]1(O)CCC[C@H]1n1c(=O)c(OC(F)F)cc2cnc(NC3CCN(S(=O)(=O)c4ccccc4F)CC3)nc21 [Example 25]
